From patent publication US20240402182A1, “PEPTIDE TARGETING FUSOBACTERIA, COMPOSITION FOR DIAGNOSING CANCER COMPRISING SAME, AND DRUG DELIVERY COMPOSITION” (INDUSTRY-ACADEMIC COOPERATION FOUNDATION, YONSEI UNIVERSITY, priority 2021, published 2024)

Tested on: mixture of 9 types of Fusobacteria
Experiment: ELISA binding affinity of selected M13 bacteriophage clones to Fusobacteria (FIG. 4D)
Set-up: species or system Fusobacterium nucleatum
Conditions: M13 bacteriophage displaying the peptide, plate coated with Fusobacteria, M13-HRP antibody, TMB, absorbance at OD450
Method: A mixture of 9 types of Fusobacteria or each of the 9 types of Fusobacteria was coated on a plate, and a blocking reaction was performed using a 5% BSA solution to prevent non-specific binding. Each selected M13 bacteriophage was reacted on the plate coated with Fusobacteria. The plate was washed three times with phosphate buffer solution containing 0.1% Tween 20, and then reacted with an M13-HRP antibody. The reaction plate was washed three times with phosphate buffer solution containing 0.1% Tween 20 and reacted using a TMB color solution. The reaction was stopped with 1 M sulfuric acid (H2SO4), and the absorbance was measured at OD450 to compare the binding affinity.

Substance: PPWLADI [SEQ ID NO: 81]
- binding affinity to Fusobacteria (ELISA): highest binding affinity
